Data: US8946397B1, “Tagged nucleosides that leave no scar upon cleavage” (priority 2011, dated 2015)
Like-named read-outs stand apart in the source and are kept apart here.

Experiments:
[1] = cited from earlier work
Deep Vent (exo-) = Deep Vent (exo-) (Pyrococcus sp., UniProt Q51334, D141A/DEL493-1029/E143A); assay: Standing start primer-extension assay; assay type: biochemical; details: 30 min incubation, triphosphate 100 μM, Template AA
Experimental: (§1) Thirteen DNA polymerases and reverse transcriptases performing well last time were tested again for their abilities to incorporate the triphosphate carrying a Bodipy 576/589 fluor (FIG. 6). The incubation time was extended to 30 min to see the boundaries for the enzymes to still consume all the primer s without leading to N+2 bands.
(§2) Gamma-^32P-labeled primer (2.5 pmol), cold primer (22.5 pmol) and template (30 pmol) were annealed by incubation at 95° C. for 5 min in various reaction buffer and slowly cooled to room temperature, followed by the addition of various DNA polymerase and reverse transcriptases. The extension was initiated by adding MJK's nucleoside triphosphates (MJ-008-065) (final concentration of 100 μM). After 30 min, the reaction was quenched by 10 mM EDTA in formamide loading buffer (20 μL); products were resolved by 14% PAGE.

Bst DNA polymerases = target: T1, Bst DNA polymerases (Geobacillus stearothermophilus, UniProt P52026); assay: Standing start primer-extension assay; assay type: biochemical; details: 30 min incubation, triphosphate 100 μM, Template AA
T1 sequence (P52026 1-876): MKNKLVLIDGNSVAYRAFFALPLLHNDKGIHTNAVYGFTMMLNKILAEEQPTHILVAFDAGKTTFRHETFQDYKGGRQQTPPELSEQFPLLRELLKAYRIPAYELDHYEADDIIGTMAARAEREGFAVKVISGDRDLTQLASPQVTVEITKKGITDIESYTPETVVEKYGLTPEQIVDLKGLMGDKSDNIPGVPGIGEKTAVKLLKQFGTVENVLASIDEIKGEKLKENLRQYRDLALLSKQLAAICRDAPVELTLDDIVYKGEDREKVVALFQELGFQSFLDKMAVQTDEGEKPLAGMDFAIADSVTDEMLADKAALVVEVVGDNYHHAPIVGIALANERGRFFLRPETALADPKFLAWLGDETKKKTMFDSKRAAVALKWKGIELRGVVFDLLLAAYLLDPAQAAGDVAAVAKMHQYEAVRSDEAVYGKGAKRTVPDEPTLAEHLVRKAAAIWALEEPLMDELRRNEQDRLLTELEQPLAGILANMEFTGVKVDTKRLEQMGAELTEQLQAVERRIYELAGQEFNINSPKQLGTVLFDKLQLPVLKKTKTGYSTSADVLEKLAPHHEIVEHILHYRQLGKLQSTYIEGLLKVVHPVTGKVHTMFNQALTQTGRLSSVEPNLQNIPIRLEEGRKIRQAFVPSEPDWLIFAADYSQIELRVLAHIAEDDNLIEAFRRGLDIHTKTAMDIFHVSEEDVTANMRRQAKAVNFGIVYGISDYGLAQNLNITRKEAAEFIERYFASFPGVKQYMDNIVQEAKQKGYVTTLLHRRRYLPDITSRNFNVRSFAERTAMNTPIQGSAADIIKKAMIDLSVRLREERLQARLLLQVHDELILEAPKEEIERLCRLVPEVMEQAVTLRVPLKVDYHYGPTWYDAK
Experimental: as §1, §2

[2] = system: DNA polymerases and reverse transcriptases; assay: Standing start primer-extension assay; assay type: biochemical
Experimental: FIG. 8. […] Subsequent removal of the side chain allows primer extension to continue. […] Incubation is for 2 min with the template primer combination.
as §1, §2

[3] = Elimination of scar from triphosphate-aldehyde, analyzed by ion-exchange HPLC; assay type: physicochemical; details: 55° C.
Experimental: To develop the reagents for elimination of scar triphosphate-aldehyde which was obtained from the treatment of compound 17 with 10 mM NaIO4 was used as model compound. A variety of conditions were explored that might eliminate the scar and the reaction was analyzed by ion-exchange HPLC (buffer A: water; buffer B: 1M NH4HCO3; gradient 0˜35% B over 20 min).

Sequence of Deep Vent (exo-) (Q51334 other isoform, or with tags, fused parts or gaps D141A/E143A/DEL493-1029): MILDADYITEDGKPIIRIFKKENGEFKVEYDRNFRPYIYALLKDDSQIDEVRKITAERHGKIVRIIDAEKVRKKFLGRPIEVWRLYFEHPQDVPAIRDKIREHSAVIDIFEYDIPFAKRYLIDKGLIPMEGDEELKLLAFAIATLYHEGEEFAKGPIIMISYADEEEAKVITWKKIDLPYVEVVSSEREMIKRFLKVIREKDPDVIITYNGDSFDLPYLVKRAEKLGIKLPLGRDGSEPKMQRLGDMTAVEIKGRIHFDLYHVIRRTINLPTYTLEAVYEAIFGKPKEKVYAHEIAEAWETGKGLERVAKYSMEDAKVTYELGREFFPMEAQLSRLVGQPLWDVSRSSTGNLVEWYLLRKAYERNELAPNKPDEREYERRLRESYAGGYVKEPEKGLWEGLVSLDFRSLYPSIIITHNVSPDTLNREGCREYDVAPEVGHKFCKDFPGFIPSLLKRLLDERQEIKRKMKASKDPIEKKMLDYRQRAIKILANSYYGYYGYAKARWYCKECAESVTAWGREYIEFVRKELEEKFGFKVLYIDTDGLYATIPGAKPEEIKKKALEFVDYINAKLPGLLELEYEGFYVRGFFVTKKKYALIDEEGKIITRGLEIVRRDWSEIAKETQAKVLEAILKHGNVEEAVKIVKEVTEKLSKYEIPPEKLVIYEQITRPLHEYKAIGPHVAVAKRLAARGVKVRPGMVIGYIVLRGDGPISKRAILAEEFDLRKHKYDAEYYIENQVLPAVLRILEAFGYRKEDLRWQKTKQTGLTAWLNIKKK

Nc1ncc([C@@H]2O[C@H](CO)[C@@H](O)[C@H]2O)c(=O)[nH]1 [pseudoisocytidine]
pKa ([1]; deprotonation of N3): 9.0

BODIPY 576/589 Labeled 1-(5-amino-3,4-dihydroxypentyl)-2′-deoxy-pseudouridine-5′-triphosphate [Compound 18]
N+2 products (Deep Vent (exo-)): only trace amount | N+2 products (Bst DNA polymerases): only trace amount | extension of a primer on a template calling for two consecutive T analogs ([2]; 2 min incubation, no 3′-ONH2 group (FIG. 8)): stops with certain of the indicated polymerases after the addition of one T analog | consume all the primer without leading to N+2 bands ([2]; thirteen enzymes, 30 min incubation, triphosphate 100 μM, Template AA): most of the polymerases and reverse transcriptases might achieve this goal

O=CCCn1cc([C@H]2C[C@H](O)[C@@H](COP(=O)(O)OP(=O)(O)OP(=O)(O)O)O2)c(=O)[nH]c1=O [triphosphate-aldehyde]
% Product ([3]; A: 100 mM glycine, pH 9.0, 10 min): 13% | % Product ([3]; A: 100 mM glycine, pH 9.0, 20 min): 20% | % Product ([3]; A: 100 mM glycine, pH 9.0, 30 min): 30% | % Product ([3]; A: 100 mM glycine, pH 10.0, 10 min): 35% | % Product ([3]; A: 100 mM glycine, pH 10.0, 20 min): 70% | % Product ([3]; A: 100 mM glycine, pH 10.0, 30 min): 87% | % Product ([3]; A: 100 mM glycine, pH 11.0, 10 min): 18% | % Product ([3]; A: 100 mM glycine, pH 11.0, 20 min): 52% | % Product ([3]; A: 100 mM glycine, pH 11.0, 30 min): 92% | % Product ([3]; B: 500 mM morpholine, pH 9.0, 10 min): 73% | % Product ([3]; B: 500 mM morpholine, pH 9.0, 20 min): 98% | % Product ([3]; B: 500 mM morpholine, pH 10.0, 10 min): 70% | % Product ([3]; B: 500 mM morpholine, pH 10.0, 20 min): 98% | % Product ([3]; B: 500 mM morpholine, pH 10.5, 10 min): 50% | % Product ([3]; B: 500 mM morpholine, pH 10.5, 20 min): 92% | % Product ([3]; B: 500 mM morpholine, pH 10.5, 30 min): 99% | % Product ([3]; B: 500 mM morpholine, pH 11.2, 10 min): 40% | % Product ([3]; B: 500 mM morpholine, pH 11.2, 20 min): 80% | % Product ([3]; B: 500 mM morpholine, pH 11.2, 30 min): 94% | % Product ([3]; C: 100 mM pyrrolidine, pH 9.0, 5 min): 32% | % Product ([3]; C: 100 mM pyrrolidine, pH 9.0, 10 min): 67% | % Product ([3]; C: 100 mM pyrrolidine, pH 10.0, 5 min): 90% | % Product ([3]; C: 100 mM pyrrolidine, pH 10.0, 10 min): 99% | % Product ([3]; C: 100 mM pyrrolidine, pH 11.0, 5 min): 99% | % Product ([3]; C: 100 mM pyrrolidine, pH 11.0, 10 min): 99%

O=c1[nH]cc([C@@H]2O[C@H](CO)[C@@H](O)[C@H]2O)c(=O)[nH]1 [pseudouridine]
pKa ([1]; cite of deprotonation unclear): 9.1

Nc1ncnc2c([C@@H]3O[C@H](CO)[C@@H](O)[C@H]3O)[nH]nc12 [formycin A]
pKa ([1]; deprotonation of N7): 9.6

O=c1[nH]cnc2c([C@@H]3O[C@H](CO)[C@@H](O)[C@H]3O)n[nH]c12 [formycin B]
pKa ([1]; deprotonation of N7): 10.4
